Laboratory results reported in ChEMBL document CHEMBL4673302, “Efficient synthesis and antitumor evaluation of 4-aminomethyl-N-arylpyrazoles: Discovery of potent and selective agents for ovarian cancer” (Bioorg Med Chem, 2021).

Test system: 786-0
Assay: Anticancer activity against human 786-0 cells assessed as cell growth inhibition measured after 48 hrs by sulforhodamine B assay
Type: functional
Settings: 48 h

**Q.** How did the GI50 turn out when `CCOC(=O)c1nn(-c2ccc(Cl)cc2)c(-c2ccccc2)c1CNC(C)(C)C` was run?
**A.** > 559 µM

**Q.** `CCOC(=O)c1nn(-c2ccccc2)c(-c2ccc(C)cc2)c1CNC(C)(C)C` [listing 1 of 2 here] was tested. Which GI50 did it give?
**A.** 86.1 µM

**Q.** For `CCOC(=O)c1nn(-c2ccc(Cl)cc2)c(-c2ccc(F)cc2)c1CNC(C)(C)C`, which GI50 is on record?
**A.** > 538 µM

**Q.** With `CCOC(=O)c1nn(-c2ccccc2)c(-c2ccc(Br)cc2)c1CNC(C)(C)C` as the compound, how does the GI50 read?
**A.** > 509 µM

**Q.** How did the GI50 turn out when `CCOC(=O)c1nn(-c2ccc(Cl)cc2)c(-c2ccc(C)cc2)c1CNC(C)(C)C` was run?
**A.** > 542 µM

**Q.** Which GI50 does the source give for `CCOC(=O)c1nn(-c2ccc(Cl)cc2)c(-c2ccc(OC)cc2)c1CNC(C)(C)C` here?
**A.** 119 µM

**Q.** `CCOC(=O)c1nn(-c2ccccc2)c(-c2ccc(C)cc2)c1CNC(C)(C)C` [listing 2 of 2 here] was tested. Which GI50 did it give?
**A.** > 585 µM

Test system: NCI-H460
Assay: Anticancer activity against human NCI-H460 cells assessed as cell growth inhibition measured after 48 hrs by sulforhodamine B assay
Type: functional
Settings: 48 h

**Q.** For `CCOC(=O)c1nn(-c2ccc(Cl)cc2)c(-c2ccccc2)c1CNC(C)(C)C`, which GI50 is on record?
**A.** > 559 µM

**Q.** For `CCOC(=O)c1nn(-c2ccccc2)c(-c2ccc(C)cc2)c1CNC(C)(C)C` [listing 1 of 2 here], which GI50 is on record?
**A.** 75.2 µM

**Q.** `CCOC(=O)c1nn(-c2ccc(Cl)cc2)c(-c2ccc(F)cc2)c1CNC(C)(C)C` was tested. Which GI50 did it give?
**A.** > 538 µM

**Q.** For `CCOC(=O)c1nn(-c2ccccc2)c(-c2ccc(Br)cc2)c1CNC(C)(C)C`, which GI50 is on record?
**A.** > 509 µM

**Q.** How did the GI50 turn out when `CCOC(=O)c1nn(-c2ccc(Cl)cc2)c(-c2ccc(C)cc2)c1CNC(C)(C)C` was run?
**A.** > 542 µM

**Q.** How did the GI50 turn out when `CCOC(=O)c1nn(-c2ccc(Cl)cc2)c(-c2ccc(OC)cc2)c1CNC(C)(C)C` was run?
**A.** 27 µM

**Q.** Which GI50 does the source give for `CCOC(=O)c1nn(-c2ccccc2)c(-c2ccc(C)cc2)c1CNC(C)(C)C` [listing 2 of 2 here] here?
**A.** > 585 µM

Test system: OVCAR-3
Assay: Anticancer activity against human OVCAR-3 cells assessed as cell growth inhibition measured after 48 hrs by sulforhodamine B assay
Type: functional
Settings: 48 h

**Q.** For `CCOC(=O)c1nn(-c2ccc(Cl)cc2)c(-c2ccccc2)c1CNC(C)(C)C`, which GI50 is on record?
**A.** > 559 µM

**Q.** With `CCOC(=O)c1nn(-c2ccccc2)c(-c2ccc(C)cc2)c1CNC(C)(C)C` [listing 1 of 2 here] as the compound, how does the GI50 read?
**A.** 0.054 µM

**Q.** How did the GI50 turn out when `CCOC(=O)c1nn(-c2ccc(Cl)cc2)c(-c2ccc(F)cc2)c1CNC(C)(C)C` was run?
**A.** > 538 µM

**Q.** How did the GI50 turn out when `CCOC(=O)c1nn(-c2ccccc2)c(-c2ccc(Br)cc2)c1CNC(C)(C)C` was run?
**A.** > 509 µM

**Q.** For `CCOC(=O)c1nn(-c2ccc(Cl)cc2)c(-c2ccc(C)cc2)c1CNC(C)(C)C`, which GI50 is on record?
**A.** > 542 µM

**Q.** `CCOC(=O)c1nn(-c2ccc(Cl)cc2)c(-c2ccc(OC)cc2)c1CNC(C)(C)C` was tested. Which GI50 did it give?
**A.** 35.4 µM

**Q.** With `CCOC(=O)c1nn(-c2ccccc2)c(-c2ccc(C)cc2)c1CNC(C)(C)C` [listing 2 of 2 here] as the compound, how does the GI50 read?
**A.** > 585 µM

Test system: U-251
Assay: Anticancer activity against human U-251 cells assessed as cell growth inhibition measured after 48 hrs by sulforhodamine B assay
Type: functional
Settings: 48 h

**Q.** For `CCOC(=O)c1nn(-c2ccc(Cl)cc2)c(-c2ccccc2)c1CNC(C)(C)C`, which GI50 is on record?
**A.** > 559 µM

**Q.** For `CCOC(=O)c1nn(-c2ccccc2)c(-c2ccc(C)cc2)c1CNC(C)(C)C` [listing 1 of 2 here], which GI50 is on record?
**A.** 65.4 µM

**Q.** `CCOC(=O)c1nn(-c2ccc(Cl)cc2)c(-c2ccc(F)cc2)c1CNC(C)(C)C` was tested. Which GI50 did it give?
**A.** > 538 µM

**Q.** How did the GI50 turn out when `CCOC(=O)c1nn(-c2ccccc2)c(-c2ccc(Br)cc2)c1CNC(C)(C)C` was run?
**A.** > 509 µM

**Q.** Which GI50 does the source give for `CCOC(=O)c1nn(-c2ccc(Cl)cc2)c(-c2ccc(C)cc2)c1CNC(C)(C)C` here?
**A.** > 542 µM

**Q.** With `CCOC(=O)c1nn(-c2ccccc2)c(-c2ccc(C)cc2)c1CNC(C)(C)C` [listing 2 of 2 here] as the compound, how does the GI50 read?
**A.** > 585 µM

Same assay, conditions: Homo sapiens, U-251, 48 h

**Q.** With `CCOC(=O)c1nn(-c2ccc(Cl)cc2)c(-c2ccc(OC)cc2)c1CNC(C)(C)C` as the compound, how does the GI50 read?
**A.** 431 µM

Test system: HT-29
Assay: Anticancer activity against human HT-29 cells assessed as cell growth inhibition measured after 48 hrs by sulforhodamine B assay
Type: functional
Settings: 48 h

**Q.** How did the GI50 turn out when `CCOC(=O)c1nn(-c2ccc(Cl)cc2)c(-c2ccccc2)c1CNC(C)(C)C` was run?
**A.** > 559 µM

**Q.** With `CCOC(=O)c1nn(-c2ccccc2)c(-c2ccc(C)cc2)c1CNC(C)(C)C` [listing 1 of 2 here] as the compound, how does the GI50 read?
**A.** 68.1 µM

**Q.** `CCOC(=O)c1nn(-c2ccc(Cl)cc2)c(-c2ccc(F)cc2)c1CNC(C)(C)C` was tested. Which GI50 did it give?
**A.** > 538 µM

**Q.** Which GI50 does the source give for `CCOC(=O)c1nn(-c2ccccc2)c(-c2ccc(Br)cc2)c1CNC(C)(C)C` here?
**A.** > 509 µM

**Q.** Which GI50 does the source give for `CCOC(=O)c1nn(-c2ccc(Cl)cc2)c(-c2ccc(C)cc2)c1CNC(C)(C)C` here?
**A.** > 542 µM

**Q.** With `CCOC(=O)c1nn(-c2ccc(Cl)cc2)c(-c2ccc(OC)cc2)c1CNC(C)(C)C` as the compound, how does the GI50 read?
**A.** 45.3 µM

**Q.** With `CCOC(=O)c1nn(-c2ccccc2)c(-c2ccc(C)cc2)c1CNC(C)(C)C` [listing 2 of 2 here] as the compound, how does the GI50 read?
**A.** > 585 µM

Test system: HaCaT
Assay: Cytotoxicity against human HaCaT cells assessed as cell growth inhibition measured after 48 hrs by sulforhodamine B assay
Type: cell-based
Settings: hacat, 48 h

**Q.** `CCOC(=O)c1nn(-c2ccc(Cl)cc2)c(-c2ccccc2)c1CNC(C)(C)C` was tested. Which GI50 did it give?
**A.** > 559 µM

**Q.** With `CCOC(=O)c1nn(-c2ccccc2)c(-c2ccc(C)cc2)c1CNC(C)(C)C` [listing 1 of 2 here] as the compound, how does the GI50 read?
**A.** 72.1 µM

**Q.** `CCOC(=O)c1nn(-c2ccc(Cl)cc2)c(-c2ccc(F)cc2)c1CNC(C)(C)C` was tested. Which GI50 did it give?
**A.** > 538 µM

**Q.** How did the GI50 turn out when `CCOC(=O)c1nn(-c2ccccc2)c(-c2ccc(Br)cc2)c1CNC(C)(C)C` was run?
**A.** > 509 µM

**Q.** How did the GI50 turn out when `CCOC(=O)c1nn(-c2ccc(Cl)cc2)c(-c2ccc(C)cc2)c1CNC(C)(C)C` was run?
**A.** > 542 µM

**Q.** `CCOC(=O)c1nn(-c2ccc(Cl)cc2)c(-c2ccc(OC)cc2)c1CNC(C)(C)C` was tested. Which GI50 did it give?
**A.** 60.1 µM

**Q.** For `CCOC(=O)c1nn(-c2ccccc2)c(-c2ccc(C)cc2)c1CNC(C)(C)C` [listing 2 of 2 here], which GI50 is on record?
**A.** > 585 µM

Test system: MCF7
Assay: Anticancer activity against human MCF7 cells assessed as cell growth inhibition measured after 48 hrs by sulforhodamine B assay
Type: functional
Settings: 48 h

**Q.** For `CCOC(=O)c1nn(-c2ccc(Cl)cc2)c(-c2ccccc2)c1CNC(C)(C)C`, which GI50 is on record?
**A.** > 559 µM

**Q.** With `CCOC(=O)c1nn(-c2ccccc2)c(-c2ccc(C)cc2)c1CNC(C)(C)C` [listing 1 of 2 here] as the compound, how does the GI50 read?
**A.** 78.2 µM

**Q.** For `CCOC(=O)c1nn(-c2ccc(Cl)cc2)c(-c2ccc(F)cc2)c1CNC(C)(C)C`, which GI50 is on record?
**A.** > 538 µM

**Q.** For `CCOC(=O)c1nn(-c2ccccc2)c(-c2ccc(Br)cc2)c1CNC(C)(C)C`, which GI50 is on record?
**A.** > 509 µM

**Q.** Which GI50 does the source give for `CCOC(=O)c1nn(-c2ccc(Cl)cc2)c(-c2ccc(C)cc2)c1CNC(C)(C)C` here?
**A.** > 542 µM

**Q.** `CCOC(=O)c1nn(-c2ccc(Cl)cc2)c(-c2ccc(OC)cc2)c1CNC(C)(C)C` was tested. Which GI50 did it give?
**A.** 238 µM

**Q.** Which GI50 does the source give for `CCOC(=O)c1nn(-c2ccccc2)c(-c2ccc(C)cc2)c1CNC(C)(C)C` [listing 2 of 2 here] here?
**A.** > 585 µM

Test system: K562
Assay: Anticancer activity against human K562 cells assessed as cell growth inhibition measured after 48 hrs by sulforhodamine B assay
Type: functional
Settings: 48 h

**Q.** `CCOC(=O)c1nn(-c2ccc(Cl)cc2)c(-c2ccccc2)c1CNC(C)(C)C` was tested. Which GI50 did it give?
**A.** > 559 µM

**Q.** With `CCOC(=O)c1nn(-c2ccccc2)c(-c2ccc(C)cc2)c1CNC(C)(C)C` [listing 1 of 2 here] as the compound, how does the GI50 read?
**A.** 11.3 µM

**Q.** Which GI50 does the source give for `CCOC(=O)c1nn(-c2ccc(Cl)cc2)c(-c2ccc(F)cc2)c1CNC(C)(C)C` here?
**A.** > 538 µM

**Q.** Which GI50 does the source give for `CCOC(=O)c1nn(-c2ccccc2)c(-c2ccc(Br)cc2)c1CNC(C)(C)C` here?
**A.** > 509 µM

**Q.** For `CCOC(=O)c1nn(-c2ccc(Cl)cc2)c(-c2ccc(C)cc2)c1CNC(C)(C)C`, which GI50 is on record?
**A.** > 542 µM

**Q.** For `CCOC(=O)c1nn(-c2ccc(Cl)cc2)c(-c2ccc(OC)cc2)c1CNC(C)(C)C`, which GI50 is on record?
**A.** 6.1 µM

**Q.** For `CCOC(=O)c1nn(-c2ccccc2)c(-c2ccc(C)cc2)c1CNC(C)(C)C` [listing 2 of 2 here], which GI50 is on record?
**A.** > 585 µM

Test system: PC-3
Assay: Anticancer activity against human PC-3 cells assessed as cell growth inhibition measured after 48 hrs by sulforhodamine B assay
Type: functional
Settings: 48 h

**Q.** How did the GI50 turn out when `CCOC(=O)c1nn(-c2ccc(Cl)cc2)c(-c2ccccc2)c1CNC(C)(C)C` was run?
**A.** > 559 µM

**Q.** For `CCOC(=O)c1nn(-c2ccccc2)c(-c2ccc(C)cc2)c1CNC(C)(C)C` [listing 1 of 2 here], which GI50 is on record?
**A.** 59.9 µM

**Q.** With `CCOC(=O)c1nn(-c2ccc(Cl)cc2)c(-c2ccc(F)cc2)c1CNC(C)(C)C` as the compound, how does the GI50 read?
**A.** > 538 µM

**Q.** How did the GI50 turn out when `CCOC(=O)c1nn(-c2ccccc2)c(-c2ccc(Br)cc2)c1CNC(C)(C)C` was run?
**A.** > 509 µM

**Q.** `CCOC(=O)c1nn(-c2ccc(Cl)cc2)c(-c2ccc(C)cc2)c1CNC(C)(C)C` was tested. Which GI50 did it give?
**A.** > 542 µM

**Q.** With `CCOC(=O)c1nn(-c2ccc(Cl)cc2)c(-c2ccc(OC)cc2)c1CNC(C)(C)C` as the compound, how does the GI50 read?
**A.** 210 µM

**Q.** How did the GI50 turn out when `CCOC(=O)c1nn(-c2ccccc2)c(-c2ccc(C)cc2)c1CNC(C)(C)C` [listing 2 of 2 here] was run?
**A.** > 585 µM
